Results published in patent publication US8859535B2, “Hydroxy substituted isoquinolinone derivatives” (Novartis AG, priority 2011, dated 2014).

Columns and labels:
[1] = biological target: T1, human MDM2 protein (amino acids 2-188) (Homo sapiens, UniProt Q00987); experiment: p53-MDM2 TR-FRET assay (p53-MDM2 Assay 1); assay type: binding; details: 1.25 nM MDM2-biotinylated, 10 nM Cy5-p53 peptide; read-out: IC50 (μM) of p53-Hdm2 inhibition (TR-FRET) Assay 1
T1 construct: human MDM2 protein (amino acids 2-188); made in house
T1 sequence (Q00987 2-188): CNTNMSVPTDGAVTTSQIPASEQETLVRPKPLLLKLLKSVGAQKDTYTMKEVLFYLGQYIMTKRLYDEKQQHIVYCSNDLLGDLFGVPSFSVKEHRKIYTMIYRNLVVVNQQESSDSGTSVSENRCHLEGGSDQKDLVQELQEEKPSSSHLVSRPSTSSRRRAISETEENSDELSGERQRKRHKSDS
How it was run: (§1)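 C-terminally biotinylated MDM2 (aa 2-188, 1.25 nM) or MDM4 (aa 2-185, 2.5 nM) with Eu-streptavidin (0.625 nM), 15 min preincubation, then 10 nM Cy5-p53 peptide (aa18-26), 15 min room temperature; TR-FRET 665/620 nm ratio, IC50 by curve fit. Modified MDM2 Assay 2 uses 0.1 nM MDM2 and 0.1 nM Eu-streptavidin.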

[2] = biological target: T2, human MDM4 protein (amino acids 2-185) (Homo sapiens, UniProt O15151); experiment: p53-MDM4 TR-FRET assay (p53-MDM4 Assay 1); assay type: binding; details: 2.5 nM MDM4-biotinylated, 10 nM Cy5-p53 peptide; read-out: IC50 (μM) of p53-Hdm4 inhibition (TR-FRET) Assay 1
T2 construct: human MDM4 protein (amino acids 2-185); made in house
T2 sequence (O15151 2-185): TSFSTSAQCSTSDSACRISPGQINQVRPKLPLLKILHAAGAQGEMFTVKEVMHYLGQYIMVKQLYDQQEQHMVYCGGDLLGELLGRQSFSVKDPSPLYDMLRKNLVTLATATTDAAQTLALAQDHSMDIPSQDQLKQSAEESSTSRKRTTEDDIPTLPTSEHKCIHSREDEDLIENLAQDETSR
How it was run: as §1

Row | IC50 [1] | IC50 [2] | SMILES
1 | 0.0078 µM | 7.38 µM | COc1cc2c(cc1OC(C)C)[C@H](c1ccc(Cl)cc1)N(c1ccc(C(C)(O)C3CN(C(=O)CO)C3)cc1)C(=O)C2 (stereo partly drawn) [Example 102, (S)-1-(4-Chloro-phenyl)-2-(4-{1-hydroxy-1-[1-(2-hydroxy-acetyl)-azetidin-3-yl]-ethyl}-phenyl)-7-isopropoxy-6-methoxy-1,4-dihydro-2H-isoquinolin-3-one]
2 | 0.0132 µM | 14.2 µM | COc1cc2c(cc1OC(C)C)[C@H](c1ccc(Cl)cc1)N(c1ccc(C(C)(O)C3CC4CCC(C3)N4C(C)=O)cc1)C(=O)C2 (stereo partly drawn) [Example 104, (S)-2-{4-[1-(8-Acetyl-8-aza-bicyclo[3.2.1]oct-3-yl)-1-hydroxy-ethyl]-phenyl}-1-(4-chloro-phenyl)-7-isopropoxy-6-methoxy-1,4-dihydro-2H-isoquinolin-3-one]
3 | 0.0049 µM | 4.23 µM | COc1cc2c(cc1OC(C)C)[C@H](c1ccc(Cl)cc1)N(c1ccc(C(C)(O)C3CC4CCC(C3)N4C(C)C)cc1)C(=O)C2 (stereo partly drawn) [Example 110, (S)-1-(4-Chloro-phenyl)-2-{4-[1-hydroxy-1-(8-isopropyl-8-aza-bicyclo[3.2.1]oct-3-yl)-ethyl]-phenyl}-7-isopropoxy-6-methoxy-1,4-dihydro-2H-isoquinolin-3-one]
4 | 0.0062 µM | 7.54 µM | COc1cc2c(cc1OC(C)C)[C@H](c1ccc(Cl)cc1)N(c1ccc(C(C)(O)C34CCC(CC3)C4)cc1)C(=O)C2 (stereo partly drawn) [Example 138, (S)-2-[4-(1-Bicyclo[2.2.1]hept-1-yl-1-hydroxy-ethyl)-phenyl]-1-(4-chloro-phenyl)-7-isopropoxy-6-methoxy-1,4-dihydro-2H-isoquinolin-3-one]
5 | 0.0083 µM | 3 µM | COCCOc1cc2c(cc1OC(C)C)[C@H](c1ccc(Cl)cc1)N(c1ccc(C(C)(O)C3CCOCC3)cc1)C(=O)C2 (stereo partly drawn) [Example 145, (S)-1-(4-Chloro-phenyl)-2-{4-[1-hydroxy-1-(tetrahydro-pyran-4-yl)-ethyl]-phenyl}-7-isopropoxy-6-(2-methoxy-ethoxy)-1,4-dihydro-2H-isoquinolin-3-one]
6 | 0.005 µM | 1.19 µM | CC(C)Oc1cc2c(cc1OCc1ccccn1)CC(=O)N(c1ccc(C(C)(O)C3CCOCC3)cc1)[C@H]2c1ccc(Cl)cc1 (stereo partly drawn) [Example 146, (S)-1-(4-Chloro-phenyl)-2-{4-[1-hydroxy-1-(tetrahydro-pyran-4-yl)-ethyl]-phenyl}-7-isopropoxy-6-(pyridin-2-ylmethoxy)-1,4-dihydro-2H-isoquinolin-3-one]

Continued, molecule first:

Row | SMILES | IC50 [1] | IC50 [2]
7 | COc1cc2c(cc1OC(C)C)[C@H](c1ccc(Cl)cc1)N(c1ccc(C(C)(O)C3CCN(C(=O)N(C)C)CC3)cc1)C(=O)C2 (stereo partly drawn) [Example 82, 4-(1-{4-[(S)-1-(4-Chloro-phenyl)-7-isopropoxy-6-methoxy-3-oxo-3,4-dihydro-1H-isoquinolin-2-yl]-phenyl}-1-hydroxy-ethyl)-piperidine-1-carboxylic acid dimethylamide] | 0.0032 µM | 2.9 µM
8 | COc1cc2c(cc1OC(C)C)[C@H](c1ccc(Cl)cc1)N(c1ccc(C(C)(O)C3CCN(C(=O)OC(C)C)CC3)cc1)C(=O)C2 (stereo partly drawn) [Example 83, 4-(1-{4-[(S)-1-(4-Chloro-phenyl)-7-isopropoxy-6-methoxy-3-oxo-3,4-dihydro-1H-isoquinolin-2-yl]-phenyl}-1-hydroxy-ethyl)-piperidine-1-carboxylic acid isopropyl ester] | 0.0069 µM | 7.54 µM
9 | COc1cc2c(cc1OC(C)C)[C@H](c1ccc(Cl)cc1)N(c1ccc(C(C)(O)C3CCN(C(=O)NC(C)C)CC3)cc1)C(=O)C2 (stereo partly drawn) [Example 84, 4-(1-{4-[(S)-1-(4-Chloro-phenyl)-7-isopropoxy-6-methoxy-3-oxo-3,4-dihydro-1H-isoquinolin-2-yl]-phenyl}-1-hydroxy-ethyl)-piperidine-1-carboxylic acid isopropylamide] | 0.0056 µM | 5.91 µM
10 | CCN1CCC(C(C)(O)c2ccc(N3C(=O)Cc4cc(OC)c(OC(C)C)cc4[C@@H]3c3ccc(Cl)cc3)cc2)CC1 (stereo partly drawn) [Example 85, (S)-1-(4-Chloro-phenyl)-2-{4-[1-(1-ethyl-piperidin-4-yl)-1-hydroxy-ethyl]-phenyl}-7-isopropoxy-6-methoxy-1,4-dihydro-2H-isoquinolin-3-one] | 0.0048 µM | 4.94 µM
11 | COc1cc2c(cc1OC(C)C)[C@H](c1ccc(Cl)cc1)N(c1ccc(C(C)(O)C3CCN(CCC(F)(F)F)CC3)cc1)C(=O)C2 (stereo partly drawn) [Example 86] | 0.0058 µM | 6.45 µM
12 | COc1cc2c(cc1OC(C)C)[C@H](c1ccc(Cl)cc1)N(c1ccc(C(C)(O)C3CCN(C(=O)C(F)F)CC3)cc1)C(=O)C2 (stereo partly drawn) [Example 87, (S)-1-(4-Chloro-phenyl)-2-(4-{1-[1-(2,2-difluoro-acetyl)-piperidin-4-yl]-1-hydroxy-ethyl}-phenyl)-7-isopropoxy-6-methoxy-1,4-dihydro-2H-isoquinolin-3-one] | 0.0287 µM | 23.9 µM
13 | COc1cc2c(cc1OC(C)C)[C@H](c1ccc(Cl)cc1)N(c1ccc(C(C)(O)C3CCN(C(=O)CC#N)CC3)cc1)C(=O)C2 (stereo partly drawn) [Example 88, 3-[4-(1-{4-[(S)-1-(4-Chloro-phenyl)-7-isopropoxy-6-methoxy-3-oxo-3,4-dihydro-1H-isoquinolin-2-yl]-phenyl}-1-hydroxy-ethyl)-piperidin-1-yl]-3-oxo-propionitrile] | 0.0114 µM | 10.8 µM
14 | COc1cc2c(cc1OC(C)C)[C@H](c1ccc(Cl)cc1)N(c1ccc(C(C)(O)C3CCN(C=O)CC3)cc1)C(=O)C2 (stereo partly drawn) [Example 89, 4-(1-{4-[(S)-1-(4-Chloro-phenyl)-7-isopropoxy-6-methoxy-3-oxo-3,4-dihydro-1H-isoquinolin-2-yl]-phenyl}-1-hydroxy-ethyl)-piperidine-1-carbaldehyde] | 0.0028 µM | 2.39 µM
15 | COc1cc2c(cc1OC(C)C)[C@H](c1ccc(Cl)cc1)N(c1ccc(C(C)(O)C3CN(C4CCOCC4)C3)cc1)C(=O)C2 (stereo partly drawn) [Example 98, (S)-1-(4-Chloro-phenyl)-2-(4-{1-hydroxy-1-[1-(tetrahydro-pyran-4-yl)-azetidin-3-yl]-ethyl}-phenyl)-7-isopropoxy-6-methoxy-1,4-dihydro-2H-isoquinolin-3-one] | 0.0342 µM | 34.7 µM
16 | COc1cc2c(cc1OC(C)C)[C@H](c1ccc(Cl)cc1)N(c1ccc(C(C)(O)C3CN(C4CCCCC4)C3)cc1)C(=O)C2 (stereo partly drawn) [Example 99, (S)-1-(4-Chloro-phenyl)-2-{4-[1-(1-cyclohexyl-azetidin-3-yl)-1-hydroxy-ethyl]-phenyl}-7-isopropoxy-6-methoxy-1,4-dihydro-2H-isoquinolin-3-one] | 0.0279 µM | 24.6 µM
17 | CCN1CCC(N2CC(C(C)(O)c3ccc(N4C(=O)Cc5cc(OC)c(OC(C)C)cc5[C@@H]4c4ccc(Cl)cc4)cc3)C2)CC1 (stereo partly drawn) [Example 100, (S)-1-(4-Chloro-phenyl)-2-(4-{1-[1-(1-ethyl-piperidin-4-yl)-azetidin-3-yl]-1-hydroxy-ethyl}-phenyl)-7-isopropoxy-6-methoxy-1,4-dihydro-2H-isoquinolin-3-one] | 0.0082 µM | 9.66 µM
18 | COc1cc2c(cc1OC(C)C)[C@H](c1ccc(Cl)cc1)N(c1ccc(C(C)(O)C3CN(C4CCN(C)CC4)C3)cc1)C(=O)C2 (stereo partly drawn) [Example 101, (S)-1-(4-Chloro-phenyl)-2-(4-{1-hydroxy-1-[1-(1-methyl-piperidin-4-yl)-azetidin-3-yl]-ethyl}-phenyl)-7-isopropoxy-6-methoxy-1,4-dihydro-2H-isoquinolin-3-one] | 0.0085 µM | 9.21 µM
